± gives the standard deviation of the averaged measurements.
Columns and labels:
SNX-5422 [1] = compound: T1, CC1(C)CC(=O)c2c(C(F)(F)F)nn(-c3ccc(C(N)=O)c(N[C@H]4CC[C@H](OC(=O)CN)CC4)c3)c2C1 [SNX-5422]; assay: area under dose-response curve of surviving fraction (unscaled, Aref=0) (surviving fraction x log10(nM)); higher = more resistant; conditions: exposure time: 5 days; dose range 0.5-1000 nM
Outline: (§1)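 Surviving fractions were fitted by 3-parameter logistic regression in the drc R package to give dose-response survival curves. They came from tumour cell lines treated for five days with eight inhibitor concentrations from 0.5 to 1000 nM and read by CellTiter-Glo luminescence against DMSO-only wells. The area under the curve is the unscaled activity area. It was calculated over log10 dose with Aref = 0.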

[2] = compound: Cn1cc(C2=Nc3cc(NC(=O)C(N)C4CCCCC4)cc4c3C2=CNNC4=O)cn1; assay: as above; conditions: exposure time: 5 days; dose range 0.5-1000 nM
Outline: as §1

BI-2536 [3] = compound: T2, CC[C@@H]1C(=O)N(C)c2cnc(Nc3ccc(C(=O)NC4CCN(C)CC4)cc3OC)nc2N1C1CCCC1 [BI-2536]; assay: as above; conditions: exposure time: 5 days; dose range 0.5-1000 nM
Outline: as §1

MDV3100 [4] = compound: T3, CNC(=O)c1ccc(N2C(=S)N(c3ccc(C#N)c(C(F)(F)F)c3)C(=O)C2(C)C)cc1F [MDV3100]; assay: as above; conditions: exposure time: 5 days; dose range 0.5-1000 nM
Outline: as §1

TIOGUANINE [5] = compound: T4, Nc1nc2[nH]cnc2c(=S)[nH]1 [TIOGUANINE]; assay: as above; conditions: exposure time: 5 days; dose range 0.5-1000 nM
Outline: as §1

CANERTINIB [6] = compound: T5, C=CC(=O)Nc1cc2c(Nc3ccc(F)c(Cl)c3)ncnc2cc1OCCCN1CCOCC1 [CANERTINIB]; assay: as above; conditions: exposure time: 5 days; dose range 0.5-1000 nM
Outline: as §1

SAPACITABINE [7] = compound: T6, CCCCCCCCCCCCCCCC(=O)Nc1ccn([C@@H]2O[C@H](CO)[C@@H](O)[C@@H]2C#N)c(=O)n1 [SAPACITABINE]; assay: as above; conditions: exposure time: 5 days; dose range 0.5-1000 nM
Outline: as §1

SNX-5422 [8] = compound: T1, SNX-5422; assay: surviving fraction relative to DMSO-only wells; higher = less growth inhibition; conditions: exposure time: 5 days
Outline: (§2)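 Continuous five-day exposure to inhibitors at 0.5, 1, 5, 10, 50, 100, 500 and 1000 nM started 24 hours after log-phase tumour cell lines were seeded at 250–500 cells per well in 384-well plates. Luminescence was read after 10 minutes at room temperature. Viability is given as surviving fraction, meaning CellTiter-Glo luminescence normalised to the median of DMSO-only wells.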

[9] = compound: Cn1cc(C2=Nc3cc(NC(=O)C(N)C4CCCCC4)cc4c3C2=CNNC4=O)cn1; assay: as above; conditions: exposure time: 5 days
Outline: as §2

BI-2536 [10] = compound: T2, BI-2536; assay: as above; conditions: exposure time: 5 days
Outline: as §2

MDV3100 [11] = compound: T3, MDV3100; assay: as above; conditions: exposure time: 5 days
Outline: as §2

TIOGUANINE [12] = compound: T4, TIOGUANINE; assay: as above; conditions: exposure time: 5 days
Outline: as §2

CANERTINIB [13] = compound: T5, CANERTINIB; assay: as above; conditions: exposure time: 5 days
Outline: as §2

AFATINIB = compound: CN(C)C/C=C/C(=O)Nc1cc2c(Nc3ccc(F)c(Cl)c3)ncnc2cc1O[C@H]1CCOC1 [AFATINIB]; assay: as above; conditions: exposure time: 5 days
Outline: as §2

SAPACITABINE [14] = compound: T6, SAPACITABINE; assay: as above; conditions: exposure time: 5 days
Outline: as §2

BT20 BREAST
area under dose-response curve (SNX-5422 [1]): 2.46
area under dose-response curve [2]: 3.17
area under dose-response curve (BI-2536 [3]): 0.663
area under dose-response curve (MDV3100 [4]): 3.5
area under dose-response curve (TIOGUANINE [5]): 3.43
area under dose-response curve (CANERTINIB [6]): 2.52
area under dose-response curve (SAPACITABINE [7]): 1.76
surviving fraction (SNX-5422 [8]; 0.5 nM): 1.14 ± 0.047
surviving fraction (SNX-5422 [8]; 1 nM): 1.1 ± 0.088
surviving fraction (SNX-5422 [8]; 5 nM): 1.14 ± 0.05
surviving fraction (SNX-5422 [8]; 10 nM): 1.094 ± 0.0083
surviving fraction (SNX-5422 [8]; 50 nM): 0.738 ± 0.039
surviving fraction (SNX-5422 [8]; 100 nM): 0.411 ± 0.063
surviving fraction (SNX-5422 [8]; 500 nM): 0.329 ± 0.046
surviving fraction (SNX-5422 [8]; 1000 nM): 0.298 ± 0.052
surviving fraction ([9]; 0.5 nM): 1.1 ± 0.05
surviving fraction ([9]; 1 nM): 1.08 ± 0.047
surviving fraction ([9]; 5 nM): 1.09 ± 0.092
surviving fraction ([9]; 10 nM): 1.05 ± 0.074
surviving fraction ([9]; 50 nM): 0.943 ± 0.08
surviving fraction ([9]; 100 nM): 0.847 ± 0.054
surviving fraction ([9]; 500 nM): 0.976 ± 0.1
surviving fraction ([9]; 1000 nM): 0.874 ± 0.065
surviving fraction (BI-2536 [10]; 0.5 nM): 1.01 ± 0.19
surviving fraction (BI-2536 [10]; 1 nM): 0.758 ± 0.17
surviving fraction (BI-2536 [10]; 5 nM): 0.0813 ± 0.018
surviving fraction (BI-2536 [10]; 10 nM): 0.0613 ± 0.031
surviving fraction (BI-2536 [10]; 50 nM): 0.0983 ± 0.025
surviving fraction (BI-2536 [10]; 100 nM): 0.109 ± 0.031
surviving fraction (BI-2536 [10]; 500 nM): 0.135 ± 0.056
surviving fraction (BI-2536 [10]; 1000 nM): 0.154 ± 0.052
surviving fraction (MDV3100 [11]; 0.5 nM): 1.1 ± 0.12
surviving fraction (MDV3100 [11]; 1 nM): 1.15 ± 0.066
surviving fraction (MDV3100 [11]; 5 nM): 1.11 ± 0.042
surviving fraction (MDV3100 [11]; 10 nM): 1.14 ± 0.029
surviving fraction (MDV3100 [11]; 50 nM): 0.907 ± 0.036
surviving fraction (MDV3100 [11]; 100 nM): 1.13 ± 0.068
surviving fraction (MDV3100 [11]; 500 nM): 0.969 ± 0.1
surviving fraction (MDV3100 [11]; 1000 nM): 1.02 ± 0.03
surviving fraction (TIOGUANINE [12]; 0.5 nM): 1.02 ± 0.028
surviving fraction (TIOGUANINE [12]; 1 nM): 1.05 ± 0.12
surviving fraction (TIOGUANINE [12]; 5 nM): 1.07 ± 0.033
surviving fraction (TIOGUANINE [12]; 10 nM): 1.03 ± 0.048
surviving fraction (TIOGUANINE [12]; 50 nM): 1.12 ± 0.068
surviving fraction (TIOGUANINE [12]; 100 nM): 1.08 ± 0.081
surviving fraction (TIOGUANINE [12]; 500 nM): 0.958 ± 0.12
surviving fraction (TIOGUANINE [12]; 1000 nM): 0.969 ± 0.18
surviving fraction (CANERTINIB [13]; 0.5 nM): 0.691 ± 0.0098
surviving fraction (CANERTINIB [13]; 1 nM): 0.712 ± 0.017
surviving fraction (CANERTINIB [13]; 5 nM): 0.654 ± 0.075
surviving fraction (CANERTINIB [13]; 10 nM): 0.609 ± 0.058
surviving fraction (CANERTINIB [13]; 50 nM): 0.908 ± 0.035
surviving fraction (CANERTINIB [13]; 100 nM): 0.899 ± 0.084
surviving fraction (CANERTINIB [13]; 500 nM): 0.82 ± 0.057
surviving fraction (CANERTINIB [13]; 1000 nM): 0.824 ± 0.069
surviving fraction (AFATINIB; 0.5 nM): 1.1 ± 0.22
surviving fraction (AFATINIB; 1 nM): 1.03 ± 0.2
surviving fraction (AFATINIB; 5 nM): 0.943 ± 0.24
surviving fraction (AFATINIB; 10 nM): 0.922 ± 0.15
surviving fraction (AFATINIB; 50 nM): 0.909 ± 0.17
surviving fraction (AFATINIB; 100 nM): 0.857 ± 0.3
surviving fraction (AFATINIB; 500 nM): 1.18 ± 0.3
surviving fraction (AFATINIB; 1000 nM): 1.28 ± 0.15
surviving fraction (SAPACITABINE [14]; 0.5 nM): 0.764 ± 0.042
surviving fraction (SAPACITABINE [14]; 1 nM): 0.743 ± 0.021
surviving fraction (SAPACITABINE [14]; 5 nM): 0.679 ± 0.051
surviving fraction (SAPACITABINE [14]; 10 nM): 0.633 ± 0.11
surviving fraction (SAPACITABINE [14]; 50 nM): 0.515 ± 0.028
surviving fraction (SAPACITABINE [14]; 100 nM): 0.396 ± 0.025
surviving fraction (SAPACITABINE [14]; 500 nM): 0.211 ± 0.023
surviving fraction (SAPACITABINE [14]; 1000 nM): 0.281 ± 0.051

— the supplement of paper PMC6045584
